Data as given in paper PMC4059507 (Archives of biochemistry and biophysics, 2013).
Where two headings read alike, the source gives them in different places.

Columns and labels:
[1] = biological target: T1, UGT2B7 (Homo sapiens, UniProt P16662); details: data not shown
T1 sequence (P16662 24-529): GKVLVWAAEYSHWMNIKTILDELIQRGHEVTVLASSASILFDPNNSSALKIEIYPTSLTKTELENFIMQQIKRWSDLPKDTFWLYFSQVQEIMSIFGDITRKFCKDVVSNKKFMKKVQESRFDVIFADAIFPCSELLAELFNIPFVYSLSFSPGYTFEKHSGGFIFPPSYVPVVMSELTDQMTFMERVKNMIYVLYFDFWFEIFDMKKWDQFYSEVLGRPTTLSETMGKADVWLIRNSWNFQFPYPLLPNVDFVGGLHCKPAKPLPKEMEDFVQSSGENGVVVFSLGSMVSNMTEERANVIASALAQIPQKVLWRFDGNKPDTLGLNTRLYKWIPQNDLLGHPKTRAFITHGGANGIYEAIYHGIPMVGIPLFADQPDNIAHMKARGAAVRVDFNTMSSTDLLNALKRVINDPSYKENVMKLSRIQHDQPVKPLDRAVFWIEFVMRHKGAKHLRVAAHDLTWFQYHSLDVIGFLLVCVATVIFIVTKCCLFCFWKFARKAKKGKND

[2] = biological target: T2, UGT1A9 (Homo sapiens, UniProt O60656)
T2 sequence (O60656 26-530): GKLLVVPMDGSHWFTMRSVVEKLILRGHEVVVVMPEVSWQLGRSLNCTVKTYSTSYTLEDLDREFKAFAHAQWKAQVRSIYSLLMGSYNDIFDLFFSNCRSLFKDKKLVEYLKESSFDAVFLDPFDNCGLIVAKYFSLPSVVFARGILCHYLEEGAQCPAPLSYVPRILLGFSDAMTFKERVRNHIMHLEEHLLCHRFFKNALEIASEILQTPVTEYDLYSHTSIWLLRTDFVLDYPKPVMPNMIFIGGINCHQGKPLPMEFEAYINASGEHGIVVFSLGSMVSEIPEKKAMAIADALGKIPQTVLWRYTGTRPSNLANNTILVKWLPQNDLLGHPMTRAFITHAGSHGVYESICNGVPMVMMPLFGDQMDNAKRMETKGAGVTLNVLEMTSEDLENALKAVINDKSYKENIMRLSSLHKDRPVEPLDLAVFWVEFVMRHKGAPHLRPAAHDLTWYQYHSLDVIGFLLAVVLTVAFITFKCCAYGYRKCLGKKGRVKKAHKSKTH

[3] = biological target: T2, UGT1A9; details: substrate inhibition model, propofol glucuronidation

| Molecule | inhibition of UGT2B7-catalyzed morphine glucuronidation [1] | UGT1A9 activity remained [2] | inhibition of 2,6-dimethylphenol glucuronidation [2] | Ki ([3]; human hepatocytes treated with UGT1A9 siRNA) [µM] | Ki ([3]; human hepatocytes treated with UGT2B7 siRNA) [µM] | Ki ([3]; human hepatocytes, OPTI Only) [µM] | Ki ([3]; human hepatocytes, TR Only) [µM] |
| --- | --- | --- | --- | --- | --- | --- | --- |
| propofol glucuronide | No inhibition | greater than 60% | only weak inhibition | – | – | – | – |
| CC(C)c1cccc(C(C)C)c1O [propofol] | – | – | – | 448 ± 203 | 199 ± 88.9 | 362 ± 31.3 | 521 ± 46.3 |
